Source: ChEMBL document CHEMBL4431384, “Indole-based allosteric inhibitors of HIV-1 integrase” (Bioorg Med Chem Lett, 2016)
pEC50, pIC50: −log10 of the molar value.

Legend:
[1] = target: T1, Human immunodeficiency virus type 1 integrase (Human immunodeficiency virus 1, UniProt Q7ZJM1); assay: Inhibition of recombinant full length C-terminal His-tagged HIV1 integrase expressed in Escherichia coli BL21(DE3) cells assessed as inhibition of recombinant C-terminal FLAG-tagged LEDGF/p75-induced integration of viral 32-mer blunt-ended U5 DNA into pBR322 DNA preincubated with enzyme for 30 mins followed by viral and target DNA addition and subsequent addition of LEDGF/p75 after 5 mins measured after 90 mins by HTRF assay; type: cell-based
[2] = target: T1, Human immunodeficiency virus type 1 integrase; assay: Inhibition of recombinant full length HIV1 C-terminal His-tagged integrase multimerization with N-terminal FLAG-tagged integrase expressed in Escherichia coli BL21(DE3) cells after 2.5 hrs by HTRF assay
[3] = target: T2, Human immunodeficiency virus type 1 integrase (Human immunodeficiency virus 1, UniProt Q7ZJM1, A128T); assay: Inhibition of recombinant full length HIV1 C-terminal His-tagged integrase A128T mutant multimerization with N-terminal FLAG-tagged integrase A128T mutant expressed in Escherichia coli BL21(DE3) cells after 2.5 hrs by HTRF assay
[4] = target: T1, Human immunodeficiency virus type 1 integrase; assay: Inhibition of C-terminal FLAG-tagged LEDGF/p75 binding to recombinant full length N-terminal His-tagged HIV1 integrase expressed in Escherichia coli BL21(DE3) cells preincubated with enzyme for 30 mins followed by LEDGF/p75 addition by HTRF assay
[5] = target: T2, Human immunodeficiency virus type 1 integrase; assay: (§1) Inhibition of recombinant full length C-terminal His-tagged HIV1 integrase A128T mutant expressed in Escherichia coli BL21(DE3) cells assessed as reduction in LEDGF/p75 independent 3' processing activity using 32P-labeled blunt ended 21-mer DNA as substrate preincubated for 30 mins followed by substrate addition measured after 1 hr by […]
[6] = target: T1, Human immunodeficiency virus type 1 integrase; assay: as §1, with “integrase” for “integrase A128T mutant”

T1 sequence (Q7ZJM1 whole entry): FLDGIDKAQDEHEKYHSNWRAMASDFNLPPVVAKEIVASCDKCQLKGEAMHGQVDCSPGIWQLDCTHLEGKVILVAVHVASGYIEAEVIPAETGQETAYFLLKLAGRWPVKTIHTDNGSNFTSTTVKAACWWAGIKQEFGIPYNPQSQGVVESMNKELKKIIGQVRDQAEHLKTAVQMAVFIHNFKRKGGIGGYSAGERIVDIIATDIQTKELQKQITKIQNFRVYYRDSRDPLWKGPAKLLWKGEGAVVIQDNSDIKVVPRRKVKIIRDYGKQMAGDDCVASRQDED
T2 sequence (Q7ZJM1 entry or part of it A128T): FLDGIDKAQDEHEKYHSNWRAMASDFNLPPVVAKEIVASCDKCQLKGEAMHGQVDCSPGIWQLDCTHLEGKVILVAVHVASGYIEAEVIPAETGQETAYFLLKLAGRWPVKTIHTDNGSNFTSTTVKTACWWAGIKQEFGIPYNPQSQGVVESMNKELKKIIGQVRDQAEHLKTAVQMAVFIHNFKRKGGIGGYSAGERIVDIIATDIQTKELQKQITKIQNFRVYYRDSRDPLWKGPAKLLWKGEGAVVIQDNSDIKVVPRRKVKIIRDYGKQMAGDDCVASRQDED

Compound | pIC50 [1] | further results
COC(C(=O)O)c1c(C)nc2ccc(Br)cc2c1-c1ccc(Cl)cc1 (stereo not drawn) | 5.89 | 
Cn1c(C(OC(C)(C)C)C(=O)O)c(-c2ccc3c(c2)CCCO3)c2ccccc21 (stereo not drawn) | 5.35 | pEC50 [2]: 4.79; pEC50 [3]: 4.80; pIC50 [4]: 4.54; pIC50 [5]: 6.05; pIC50 [6]: 5.49
Cn1c(C(OC(C)(C)C)C(=O)O)c(Cc2ccccc2)c2ccccc21 (stereo not drawn) | 4.50 | 
Cn1c(CC(OC(C)(C)C)C(=O)O)c(-c2ccccc2)c2ccccc21 (stereo not drawn) | < 4.00 | 
COc1ccc(-n2c(C(OC(C)(C)C)C(=O)O)c(C)c3ccccc32)cc1 (stereo not drawn) | < 4.00 | 
COc1ccc(-c2c(C(OC(C)(C)C)C(=O)O)n(C)c3ccccc23)cc1 (stereo not drawn) | 4.49 | 
COc1ccc(-c2c(C(OC(C)(C)C)C(=O)O)n(Cc3ccccc3)c3ccccc23)cc1 (stereo not drawn) | 4.23 | 
Cn1c(C(OC(C)(C)C)C(=O)O)c(-c2ccccc2)c2ccccc21 (stereo not drawn) | 4.36 | 
